Results: ChEMBL document CHEMBL1909046, “DrugMatrix in vitro pharmacology data”

Assays:
[1] = molecular target: Beta-1 adrenergic receptor (Homo sapiens, UniProt P08588); assay: DRUGMATRIX: Adrenergic beta1 radioligand binding (ligand: [125I] Cyanopindolol); format: cell membranes, CHO-K1, Membrane; conditions: cho-k1; Not Active = under 50% inhibition at 10 µM
[2] = DRUGMATRIX: ATPase, Na+/K+ enzyme inhibition (substrate: ATP); format: tissue-based, Sus scrofa, Heart; conditions: Not Active = under 50% inhibition at 10 µM
[3] = molecular target: T1, B2 bradykinin receptor (Homo sapiens, UniProt P30411); format: cell membranes, Membrane; conditions: chem-1; note: in other assays of this panel Not Active means under 50% inhibition at 10 µM
T1 sequence (P30411 whole entry): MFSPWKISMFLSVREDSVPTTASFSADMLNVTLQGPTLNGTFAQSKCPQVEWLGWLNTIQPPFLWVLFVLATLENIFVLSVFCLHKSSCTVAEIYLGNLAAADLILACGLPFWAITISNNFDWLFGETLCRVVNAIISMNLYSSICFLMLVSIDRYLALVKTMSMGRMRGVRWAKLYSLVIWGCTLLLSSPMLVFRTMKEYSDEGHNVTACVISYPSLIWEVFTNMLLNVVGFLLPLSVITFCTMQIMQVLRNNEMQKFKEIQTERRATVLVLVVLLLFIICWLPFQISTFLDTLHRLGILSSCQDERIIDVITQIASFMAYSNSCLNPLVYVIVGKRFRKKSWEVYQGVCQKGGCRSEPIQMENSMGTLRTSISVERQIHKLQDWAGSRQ

[4] = molecular target: Carbonic anhydrase 2 (Homo sapiens, UniProt P00918); assay: DRUGMATRIX: Carbonic Anhydrase II enzyme inhibition (substrate: 4-Nitrophenyl acetate (4-NPA)); format: tissue-based, Erythrocyte; conditions: erythrocyte; Not Active = under 50% inhibition at 10 µM
[5] = molecular target: C-C chemokine receptor type 5 (Homo sapiens, UniProt P51681); format: cell membranes, HEK293, Membrane; conditions: hek293; note: in other assays of this panel Not Active means under 50% inhibition at 10 µM
[6] = molecular target: T2, 3-hydroxy-3-methylglutaryl-coenzyme A reductase (Homo sapiens, UniProt P04035); design: species or system Escherichia coli;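 note: enzyme inhibition assay of HMG-CoA reductase using radiolabeled [14C]HMG-CoA as substrate; in other assays of this panel Not Active means under 50% inhibition at 10 µM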
T2 sequence (P04035 whole entry): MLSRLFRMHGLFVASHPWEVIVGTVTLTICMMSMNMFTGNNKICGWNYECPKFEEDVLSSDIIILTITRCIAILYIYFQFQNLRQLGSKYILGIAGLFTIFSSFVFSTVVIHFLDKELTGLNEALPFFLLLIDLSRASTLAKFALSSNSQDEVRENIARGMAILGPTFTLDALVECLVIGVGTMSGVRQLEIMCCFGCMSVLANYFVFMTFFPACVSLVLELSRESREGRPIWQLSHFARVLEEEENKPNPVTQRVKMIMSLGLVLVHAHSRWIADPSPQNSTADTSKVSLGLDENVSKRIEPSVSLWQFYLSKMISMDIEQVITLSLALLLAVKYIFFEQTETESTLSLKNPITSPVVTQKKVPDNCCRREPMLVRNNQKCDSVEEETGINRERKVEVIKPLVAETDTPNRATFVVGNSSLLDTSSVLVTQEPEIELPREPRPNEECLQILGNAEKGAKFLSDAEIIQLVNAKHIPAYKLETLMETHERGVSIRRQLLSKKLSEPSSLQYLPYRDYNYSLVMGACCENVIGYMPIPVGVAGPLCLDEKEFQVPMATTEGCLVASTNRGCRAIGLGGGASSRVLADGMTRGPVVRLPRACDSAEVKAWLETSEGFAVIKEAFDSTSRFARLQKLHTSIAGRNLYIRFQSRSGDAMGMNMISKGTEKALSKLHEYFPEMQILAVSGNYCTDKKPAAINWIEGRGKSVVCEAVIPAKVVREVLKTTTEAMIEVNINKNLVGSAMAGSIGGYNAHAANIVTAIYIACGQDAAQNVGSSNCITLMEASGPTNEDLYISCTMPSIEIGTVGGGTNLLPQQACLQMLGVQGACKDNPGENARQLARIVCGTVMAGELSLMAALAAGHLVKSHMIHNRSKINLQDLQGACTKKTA

[7] = molecular target: Protein phosphatase 3 catalytic subunit alpha (Homo sapiens, UniProt Q08209); design: species or system Escherichia coli;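 note: inhibition of calcineurin (PP2B) enzyme activity, measured with DiFMUP as the substrate; in other assays of this panel Not Active means under 50% inhibition at 10 µM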

Beta-1 adrenergic receptor, sequence (P08588 whole entry): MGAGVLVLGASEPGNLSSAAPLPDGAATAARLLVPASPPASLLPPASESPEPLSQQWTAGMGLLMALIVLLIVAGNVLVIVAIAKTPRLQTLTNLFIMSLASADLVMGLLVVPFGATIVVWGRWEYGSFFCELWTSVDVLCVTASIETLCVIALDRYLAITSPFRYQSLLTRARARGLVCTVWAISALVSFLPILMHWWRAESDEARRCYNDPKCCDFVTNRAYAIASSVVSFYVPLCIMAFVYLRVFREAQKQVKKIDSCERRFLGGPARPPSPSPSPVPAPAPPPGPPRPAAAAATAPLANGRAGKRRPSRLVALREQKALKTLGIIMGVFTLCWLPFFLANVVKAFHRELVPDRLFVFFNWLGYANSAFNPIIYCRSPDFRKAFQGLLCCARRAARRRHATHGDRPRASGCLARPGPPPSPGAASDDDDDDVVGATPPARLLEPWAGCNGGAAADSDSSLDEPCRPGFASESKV
C-C chemokine receptor type 5, sequence (P51681 whole entry): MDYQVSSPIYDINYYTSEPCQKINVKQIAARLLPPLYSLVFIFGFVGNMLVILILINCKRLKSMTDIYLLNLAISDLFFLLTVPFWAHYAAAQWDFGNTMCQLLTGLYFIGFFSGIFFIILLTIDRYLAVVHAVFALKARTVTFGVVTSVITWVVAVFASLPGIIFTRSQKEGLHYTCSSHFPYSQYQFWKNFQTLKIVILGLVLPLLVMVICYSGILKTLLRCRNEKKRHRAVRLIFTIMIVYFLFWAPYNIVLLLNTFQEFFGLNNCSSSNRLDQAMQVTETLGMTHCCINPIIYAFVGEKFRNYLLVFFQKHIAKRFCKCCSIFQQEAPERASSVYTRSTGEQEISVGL

Cc1ccc(S(=O)(=O)NC(=O)NN2CCCCCC2)cc1 [TOLAZAMIDE]
Not Active: IC50 [1] | IC50 [2] | Ki [2] | IC50 [3] | IC50 [4] | IC50 [5] | IC50 [6] | IC50 [7]

Cc1cccc(C)c1NC(=O)C(C)N (centres undefined) [TOCAINIDE]
Not Active: IC50 [1] | IC50 [2] | Ki [2] | IC50 [3] | IC50 [4] | IC50 [5] | IC50 [6] | IC50 [7]

Cc1cc2c(s1)Nc1ccccc1N=C2N1CCN(C)CC1 [OLANZAPINE]
Not Active: IC50 [1] | IC50 [3] | IC50 [4] | IC50 [5] | IC50 [6] | IC50 [7]

COC(=O)Nc1nc2ccc(C(=O)c3ccccc3)cc2[nH]1 [MEBENDAZOLE]
Not Active: IC50 [1] | IC50 [2] | Ki [2] | IC50 [3] | IC50 [4] | IC50 [5] | IC50 [6] | IC50 [7]

O=C1CC[C@@]2(O)[C@H]3Cc4ccc(O)c5c4[C@@]2(CCN3CC2CC2)[C@H]1O5 [NALTREXONE]
Not Active: IC50 [1] | IC50 [2] | Ki [2] | IC50 [3] | IC50 [4] | IC50 [5] | IC50 [6] | IC50 [7]

CCN(CC)CCNC(=O)c1cc(Cl)c(N)cc1OC [METOCLOPRAMIDE]
Not Active: IC50 [1] | IC50 [2] | Ki [2] | IC50 [3] | IC50 [4] | IC50 [5] | IC50 [6] | IC50 [7]

CCOc1cc(N)c(Cl)cc1C(=O)NCC1CN(Cc2ccc(F)cc2)CCO1 (centres undefined) [MOSAPRIDE]
Not Active: IC50 [1] | IC50 [2] | Ki [2] | IC50 [3] | IC50 [4] | IC50 [5] | IC50 [6] | IC50 [7]

Cc1ccc(Cl)c(Nc2ccccc2C(=O)O)c1Cl [MECLOFENAMIC ACID]
Not Active: IC50 [1] | IC50 [2] | Ki [2] | IC50 [3] | IC50 [4] | IC50 [5] | IC50 [6] | IC50 [7]

CCN1CCCC1CNC(=O)c1cc(S(N)(=O)=O)ccc1OC (centres undefined) [SULPIRIDE]
Not Active: IC50 [1] | IC50 [2] | Ki [2] | IC50 [3] | IC50 [5] | IC50 [6] | IC50 [7]

CCC(C)(C)C(=O)O[C@H]1C[C@@H](C)C=C2C=C[C@H](C)[C@H](CC[C@@H]3C[C@@H](O)CC(=O)O3)[C@H]21 [SIMVASTATIN]
Not Active: IC50 [1] | IC50 [2] | Ki [2] | IC50 [3] | IC50 [4] | IC50 [5] | IC50 [7]

Cc1ccnc(NS(=O)(=O)c2ccc(N)cc2)n1 [SULFAMERAZINE]
Not Active: IC50 [1] | IC50 [2] | Ki [2] | IC50 [3] | IC50 [5] | IC50 [6] | IC50 [7]

CN(C)CCC=C1c2ccccc2COc2ccccc21 [DOXEPIN]
Not Active: IC50 [3] | IC50 [4] | IC50 [5] | IC50 [6] | IC50 [7]

CNCCCC12CCC(c3ccccc31)c1ccccc12 [MAPROTILINE]
Not Active: IC50 [1] | IC50 [3] | IC50 [4] | IC50 [5] | IC50 [6] | IC50 [7]
